Measured values reported in patent US8367051B2, “Preparation of functional gel particles with a dual crosslink network” (Carnegie Mellon University, priority 2006, dated 2013).

Test system: HeLa cells
Assay: Doxorubicin release from nanogels in cell media, live/dead cell assay
Format: cell-based
Settings: after addition of glutathione (nanogels) or free Dox (control wells); control 93%; free Dox amount 6-7 times larger
Procedure: Doxorubicin release from nanogels in cell media. Using standard cell culture techniques, 5×10^4 HeLa cells were added to each well of a 24-well plate and cultured in complete DMEM for 24 h to permit cell attachment to the surface. After this time period, Dox-loaded nanogel (16%, 1.5 mg) was added to four wells (for each nanogel sample), leaving 12 wells with no gel to serve at control. After another 24 hours (48 hours total), the media was removed from 10 of the wells (6 samples, 4 controls) and a live/dead cell assay was performed to measure the toxicity of the gel before addition of the reducing agent. After performing this analysis, glutathione (0.2 mg) dissolved in sterile PBS, was added to each well containing the nanogels and 6 of the control wells. Additionally, free Dox (1 mg) was added to 3 of the control wells. […]
To confirm the non-limiting exemplary concept that Dox-loaded nanogels will be degraded upon the addition of glutathione in cellular media and in turn, the released Dox molecules will kill cancer cells, HeLa cancer cells were incubated with and without 16.4% Dox-loaded nanogels. The cell viability was measured at the 48-hour time point using live/dead staining to estimate the cytotoxicity of the Dox-loaded nanogel before addition of the reducing agent. […]

## COc1cccc2c1C(=O)c1c(O)c3c(c(O)c1C2=O)C[C@@](O)(C(=O)CO)C[C@@H]3O[C@H]1C[C@H](N)[C@H](O)[C@H](C)O1.Cl [free Dox, doxorubicin hydrochloride]
  cell viability of HeLa cells after Dox release: 7%
